This note sets out measurements from US12103919B2, “3-(5-oxy)-1-oxoisoindolin-2-yl)piperidine-2,6-dione derivatives and uses thereof” (NOVARTIS AG, priority 2021, dated 2024).

One experiment deals with T1, SALL4 (Homo sapiens, UniProt Q96SW2+Q9UJQ4).
T1 construct: expressed in transfected cells; host or cells: GripTite 293 MSR cells (293GT), ThermoFisher Scientific, stably transfected by electroporation, blasticidin-selected clones
Nature of the experiment: Quantification of SALL4 protein levels in HiBiT tag fusion protein assay. It counts as cell-based. The method, then: The HiBiT system from Promega was used to develop high-throughput and quantitative assays to measure changes in SALL4 protein levels in response to compounds. The HiBiT tag was derived from a split Nanoluciferase and has the following protein sequence: […] (SEQ ID No: 1). The complementary fragment of Nanoluciferase (known as LgBiT, from Promega), was added to the HiBiT tag to form an active Nanoluciferase enzyme whose activity can be precisely measured. In this way, the levels of a fusion protein with the HiBiT tag can be quantified in cell lysates.
DNA constructs, based on the Invitrogen pLenti6.2/V5 DEST backbone, were constructed with the HiBiT tag upstream of SALL4 and expressed the fusion protein from a CMV promotor.
To ensure moderate and consistent expression of the HiBiT-SALL4 fusion protein across all cells in the population, stable cell lines were derived from clones. GripTite 293 MSR cells (293GT) from ThermoFisher Scientific (Catalog number: CRL-R79507), were stably transfected with prepared constructs via electroporation. Following recovery, cells were selected by 10 ug/mL blasticidin in culture media.
The levels of HiBiT-SALL4 tagged fusion proteins in compound-treated cell lines were measured as follows:
On day 1, cells were diluted to 1.0×10^6 cells/ml in normal growth medium. 20 μL of cell suspension were plated in each well of a solid white 384-well plate. Plates were incubated overnight in a 37° C. and 5% CO2 humidified tissue culture incubator.
On day 2, serial dilutions of compounds were made in 384-well plates. Compound plates were set up with DMSO in columns 1, 2, 23, 24, and 10-point compound dilution series in column 3-12 and column 13-22. 10 mM stock solution of compound were placed into column 3 or 13 and a 1:5 serial dilution was carried out until there was a 10-point dilution series per compound. 100 nL of diluted compounds were transferred into the plated cells by Echo® (Labcyte) acoustic transfer. The highest concentration of compound was 50 μM. Plates were incubated overnight (18 hours) in a 37° C. and 5% CO2 humidified tissue culture incubator.
On day 3, plates were removed from the incubator and allowed to equilibrate at room temperature for 60 minutes. HiBiT substrate (Nano-Glo® HiBit Lytic Detection System, Promega Catalogue number: N3050) was added as described by the manufacturers protocols. Plates were incubated at room temperature for 30 minutes and luminescence was read using an EnVision® reader (PerkinElmer®). Data was analyzed and visualized using the Spotfire® software package.
SALL4 Amax reflects the DMSO-normalized, curve-fitted percentage of SALL4-HiBiT remaining at 50 uM. It was calculated by normalizing DMSO controls to 100%, parametric curve fitting of the dose response data (10-point, 5-fold), followed by calculation of response at 50 uM using the fitted equation.
This assay produced a range of SALL4 AC50 and Amax values over several repeat runs due to normal variations in the assay. For a comparison to the compounds described in PCT/IB2020/062070, the arithmatic mean values are reported over the number of repeats specified. […] The compounds of the present disclosure are therefore expected to have improved toxicological properties (Matyskiela, M. E., Couto, S., Zheng, X. et al. SALL4 mediates teratogenicity as a thalidomide-dependent cereblon substrate. Nat Chem Biol 14, 981-987 (2018); Donovan, K. A. et al. Thalidomide promotes degradation of SALL4, a transcription factor Implicated in Duane Radial Ray syndrome. eLife 2018; 7:e38430).
In general terms: With HiBiT, luminescence reflects the tagged protein that the partner subunit can reach.

A further experiment addresses T2, WIZ (Homo sapiens, UniProt O95785+Q96SW2).
T2 construct: expressed in transfected cells
Briefly: Quantification of WIZ protein levels in HiBit tag fusion protein assay (293T cells). It is filed as cell-based. Details: Dmax: dose or concentration left out as unconfirmed. The settings on record: for DC50: read-out: WIZ AC50. The essentials:
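293T cells stably carrying a single-copy HiBit-WIZ fusion were exposed to compounds for about 18 hours at 37° C., top concentration 25 μM, 10-point 5-fold series. Lysates were complemented with LgBit and luminescence was read. Amax is the DMSO-normalized, curve-fitted percentage of WIZ-HiBit remaining at 25 uM.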

Molecules are shown by their SMILES. Read-outs that look alike come from different tables or passages of the source.

T2 sequence (O95785 whole entry): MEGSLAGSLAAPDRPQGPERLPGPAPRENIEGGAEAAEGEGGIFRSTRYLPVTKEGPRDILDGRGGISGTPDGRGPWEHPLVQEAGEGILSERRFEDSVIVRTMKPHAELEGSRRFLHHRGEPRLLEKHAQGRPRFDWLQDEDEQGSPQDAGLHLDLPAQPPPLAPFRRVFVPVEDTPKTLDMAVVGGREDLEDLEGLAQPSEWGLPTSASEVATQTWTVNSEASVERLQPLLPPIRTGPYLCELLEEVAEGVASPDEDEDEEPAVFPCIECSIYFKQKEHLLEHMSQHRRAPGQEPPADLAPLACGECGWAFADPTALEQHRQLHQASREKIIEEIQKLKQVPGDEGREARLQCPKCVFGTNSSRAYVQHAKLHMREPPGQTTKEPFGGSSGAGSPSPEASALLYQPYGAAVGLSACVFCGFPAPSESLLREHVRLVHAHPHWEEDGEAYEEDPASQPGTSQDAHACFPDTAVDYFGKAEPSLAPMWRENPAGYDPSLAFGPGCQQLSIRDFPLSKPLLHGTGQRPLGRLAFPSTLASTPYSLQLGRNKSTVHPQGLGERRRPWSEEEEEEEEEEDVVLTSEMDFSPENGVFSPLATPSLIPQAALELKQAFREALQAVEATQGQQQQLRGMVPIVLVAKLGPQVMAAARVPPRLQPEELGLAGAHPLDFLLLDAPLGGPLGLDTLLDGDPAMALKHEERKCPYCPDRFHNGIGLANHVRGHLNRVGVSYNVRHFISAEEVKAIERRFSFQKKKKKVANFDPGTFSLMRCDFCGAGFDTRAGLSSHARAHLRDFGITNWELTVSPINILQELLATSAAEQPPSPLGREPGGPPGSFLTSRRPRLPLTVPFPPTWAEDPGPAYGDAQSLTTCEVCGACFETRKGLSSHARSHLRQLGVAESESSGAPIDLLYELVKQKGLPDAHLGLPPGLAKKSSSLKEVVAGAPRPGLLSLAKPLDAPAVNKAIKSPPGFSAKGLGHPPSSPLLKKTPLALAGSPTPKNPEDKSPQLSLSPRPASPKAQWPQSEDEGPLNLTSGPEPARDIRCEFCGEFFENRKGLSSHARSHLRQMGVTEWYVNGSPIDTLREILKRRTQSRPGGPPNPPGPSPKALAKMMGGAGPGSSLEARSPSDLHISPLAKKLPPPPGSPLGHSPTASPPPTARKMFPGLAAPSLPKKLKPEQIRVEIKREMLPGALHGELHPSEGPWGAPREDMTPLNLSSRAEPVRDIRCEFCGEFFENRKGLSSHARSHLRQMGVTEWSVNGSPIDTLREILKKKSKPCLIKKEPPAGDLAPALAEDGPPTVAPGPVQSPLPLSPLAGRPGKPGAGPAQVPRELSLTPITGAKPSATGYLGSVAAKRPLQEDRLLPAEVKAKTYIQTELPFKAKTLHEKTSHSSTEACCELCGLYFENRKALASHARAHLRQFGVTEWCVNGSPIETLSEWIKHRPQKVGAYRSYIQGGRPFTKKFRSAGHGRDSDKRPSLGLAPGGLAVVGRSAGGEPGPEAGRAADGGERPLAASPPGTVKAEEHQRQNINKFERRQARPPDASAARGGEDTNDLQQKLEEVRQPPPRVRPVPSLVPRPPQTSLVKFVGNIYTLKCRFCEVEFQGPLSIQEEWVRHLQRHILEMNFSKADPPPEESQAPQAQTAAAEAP
T2 sequence (Q96SW2 whole entry): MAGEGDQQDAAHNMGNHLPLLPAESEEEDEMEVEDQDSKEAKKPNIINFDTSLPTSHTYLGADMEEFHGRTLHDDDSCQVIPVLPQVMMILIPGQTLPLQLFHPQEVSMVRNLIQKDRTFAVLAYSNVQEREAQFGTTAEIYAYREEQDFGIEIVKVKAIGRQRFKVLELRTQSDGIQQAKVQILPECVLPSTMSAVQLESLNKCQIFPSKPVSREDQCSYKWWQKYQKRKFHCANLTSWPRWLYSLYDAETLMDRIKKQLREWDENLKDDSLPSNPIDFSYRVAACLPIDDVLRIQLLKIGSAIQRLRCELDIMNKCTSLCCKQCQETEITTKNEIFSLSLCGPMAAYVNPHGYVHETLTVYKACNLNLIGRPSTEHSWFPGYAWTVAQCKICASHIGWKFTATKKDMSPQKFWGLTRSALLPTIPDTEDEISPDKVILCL
T2 sequence (Q16531 whole entry partner): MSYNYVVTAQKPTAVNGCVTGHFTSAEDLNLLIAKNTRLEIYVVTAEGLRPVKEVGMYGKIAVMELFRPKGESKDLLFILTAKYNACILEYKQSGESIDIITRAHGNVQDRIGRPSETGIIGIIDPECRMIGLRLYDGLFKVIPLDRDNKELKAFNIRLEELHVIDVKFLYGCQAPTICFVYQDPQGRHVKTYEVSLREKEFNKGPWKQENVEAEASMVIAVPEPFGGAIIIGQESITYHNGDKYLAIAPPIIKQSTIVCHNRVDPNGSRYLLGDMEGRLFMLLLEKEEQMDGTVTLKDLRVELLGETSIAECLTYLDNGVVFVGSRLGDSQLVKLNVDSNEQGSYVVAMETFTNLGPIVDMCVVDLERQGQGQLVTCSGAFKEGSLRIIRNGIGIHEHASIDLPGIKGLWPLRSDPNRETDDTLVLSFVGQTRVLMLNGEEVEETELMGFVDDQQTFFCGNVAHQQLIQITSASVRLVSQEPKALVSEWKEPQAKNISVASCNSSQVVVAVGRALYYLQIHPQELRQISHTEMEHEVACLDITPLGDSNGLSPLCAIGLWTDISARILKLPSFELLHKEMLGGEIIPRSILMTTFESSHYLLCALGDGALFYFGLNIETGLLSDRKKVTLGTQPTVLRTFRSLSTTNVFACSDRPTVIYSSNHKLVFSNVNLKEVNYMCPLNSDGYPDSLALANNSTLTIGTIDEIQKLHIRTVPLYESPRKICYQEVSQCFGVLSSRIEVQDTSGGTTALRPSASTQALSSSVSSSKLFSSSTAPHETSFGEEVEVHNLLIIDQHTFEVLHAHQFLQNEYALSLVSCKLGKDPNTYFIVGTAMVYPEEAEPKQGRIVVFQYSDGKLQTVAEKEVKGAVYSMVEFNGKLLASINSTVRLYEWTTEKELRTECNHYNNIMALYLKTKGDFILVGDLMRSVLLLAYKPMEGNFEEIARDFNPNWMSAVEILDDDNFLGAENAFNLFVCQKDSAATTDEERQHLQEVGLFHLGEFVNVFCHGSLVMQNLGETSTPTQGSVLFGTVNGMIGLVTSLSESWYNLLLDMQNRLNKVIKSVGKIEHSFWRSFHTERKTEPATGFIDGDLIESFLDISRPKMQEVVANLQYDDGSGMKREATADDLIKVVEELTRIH
T1 sequence (Q9UJQ4 whole entry): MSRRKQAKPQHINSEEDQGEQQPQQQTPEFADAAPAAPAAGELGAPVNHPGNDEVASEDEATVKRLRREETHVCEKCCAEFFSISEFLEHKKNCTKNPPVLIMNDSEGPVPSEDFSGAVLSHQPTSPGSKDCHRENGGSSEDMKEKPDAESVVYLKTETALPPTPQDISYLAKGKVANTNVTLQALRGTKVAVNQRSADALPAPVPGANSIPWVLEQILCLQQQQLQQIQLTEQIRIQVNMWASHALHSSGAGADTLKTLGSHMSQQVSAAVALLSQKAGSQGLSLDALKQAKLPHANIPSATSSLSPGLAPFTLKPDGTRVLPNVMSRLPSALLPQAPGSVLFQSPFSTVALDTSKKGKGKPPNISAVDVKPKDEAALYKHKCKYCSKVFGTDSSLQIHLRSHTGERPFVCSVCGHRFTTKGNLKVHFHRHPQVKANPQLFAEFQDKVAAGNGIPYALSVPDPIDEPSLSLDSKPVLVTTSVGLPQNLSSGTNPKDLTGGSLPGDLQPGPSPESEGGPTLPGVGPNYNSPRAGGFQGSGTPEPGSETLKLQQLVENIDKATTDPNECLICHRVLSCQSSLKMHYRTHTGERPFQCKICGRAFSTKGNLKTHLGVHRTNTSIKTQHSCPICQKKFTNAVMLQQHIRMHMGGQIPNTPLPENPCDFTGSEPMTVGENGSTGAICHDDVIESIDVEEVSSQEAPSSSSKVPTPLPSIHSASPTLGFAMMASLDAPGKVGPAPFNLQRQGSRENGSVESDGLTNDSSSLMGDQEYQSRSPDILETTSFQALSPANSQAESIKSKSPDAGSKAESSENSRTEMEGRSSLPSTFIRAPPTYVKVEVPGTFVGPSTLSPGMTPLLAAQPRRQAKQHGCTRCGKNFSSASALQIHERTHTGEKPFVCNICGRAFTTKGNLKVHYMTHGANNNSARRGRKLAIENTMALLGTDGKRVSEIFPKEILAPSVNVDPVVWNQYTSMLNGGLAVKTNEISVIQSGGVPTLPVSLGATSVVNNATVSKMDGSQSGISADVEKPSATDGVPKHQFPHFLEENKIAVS
T1 sequence (Q96SW2 whole entry): as the sequence (Q96SW2 whole entry) above
T1 sequence (Q16531 whole entry partner): as the sequence (Q16531 whole entry partner) above

For the compound `CCN1CCC[C@@H](Oc2ccc3c(c2)CN(C2CCC(=O)NC2=O)C3=O)C1` (mixture of isomers) [Example 1, 3-(5-(((R)-1-ethylpiperidin-3-yl)oxy)-1-oxoisoindolin-2-yl)piperidine-2,6-dione], the “SALL4 Amax” value at SALL4 (DMSO-normalized, curve-fitted percentage of SALL4-HiBiT remaining at 50 uM, mean over repeats) turned out to be 72.21%. Also, the DC50 stood at 0.049 µM at SALL4 (arithmatic mean over number of repeats, 18 hours, top 50 μM, read-out: SALL4 AC50); 0.016 µM on WIZ (WIZ HiBit assay in 293T cells, about 18 hours, 10-point 5-fold dilution, top 25 μM); 0.016 µM on WIZ (updated arithmatic mean over the number of repeats specified, assay of Example 89). Besides, on WIZ (HEK-293T, read-out: % degradation of WIZ (100 − Amax)), the Dmax worked out at 76%. Further, the remaining activity at 25 µM at WIZ (HEK-293T, read-out: WIZ Amax) is 24%.
